A short description of the data set: pH of triazene water solution before, during and after 370 nm irradiation. Format: physicochemical. The settings on record: 0.5 mM triazene in water, 370 nm light; for pH change during irradiation: 1 minute. As to the method:
Referring to FIG. 5, 0.5 mM of triazenes 1a, 1g, and 1i were incubated in a water solution and the relative pH was measured before, during, and after irradiation with 370 nm light. […] Furthermore, the data notes that after irradiation has ceased, there is an immediate drop in pH consistent with the reversion of the scaffold to the trans-species.

Consider `O=[N+]([O-])c1ccc(N=NN2CCCCC2)cc1` [1a], for which the “pH change during irradiation” value was “did not elicit notable pH change”.

On to `c1ccc(N=NN2CCCCC2)cc1` [1g], for which the “pH change during irradiation” value is given as “notable increases of pH”.

With `COc1ccc(N=NN2CCCCC2)cc1` [1i], the “relative change in pH versus 1g” value is listed as “over double that of 1g”.

In the case of `COc1ccc(N=Nc2ccc(O)cc2O)cc1` [2i], the “pH change during irradiation” value was “notable increases of pH”.

For the origin of these results see patent US20240277847A1, “BENCH-STABLE TRIAZENE COMPOSITIONS FOR PROTEIN MODIFICATION” (ARIZONA BOARD OF REGENTS ON BEHALF OF THE UNIVERSITY OF …, priority 2021, published 2024).
